{
  "source": "patent US12319649B1",
  "about": "“Cannabidiolic acid cocrystals” (Manoira Corporation, priority 2024, dated 2025)",
  "key": {"[1]": {"test": "Solid-state stability study at 40° C. and 75% relative humidity", "assay_type": "physicochemical", "settings": "40° C./75% RH, sealed container; for Storage stability compared to pure cannabidiolic acid: up to 4 weeks", "protocol": "The physical stability of the cannabidiolic acid cocrystals was examined with respect to solid form conversion or signs of decomposition or decarboxylation, and to compare the results with those for pure cannabidiolic acid. In order to assess the storage potential of the cocrystals within a reasonable timeframe standard accelerated storage conditions of 40° C. and 75% relative humidity were chosen. 50 mg each of the 1:1 cannabidiolic acid L-phenylalanine, 1:1 cannabidiolic acid vanillin, 1:1 cannabidiolic acid betaine, 1:1 cannabidiolic acid ethyl maltol, 1:1 cannabidiolic acid L-proline and cannabidiolic acid were separately placed in a sealed container at 40° C. and 75% relative humidity and monitored periodically over a 4-week time period. All samples that had not decomposed and remained as solids were analyzed by XRPD after this time to observe any potential form changes. At the start of the study, all cocrystal samples were white solids while the pure cannabidiolic acid was an off-white solid."}, "COX-2": {"target": "T1, COX-2 (Homo sapiens, UniProt P35354)", "T1 sequence (P35354 18-604)": "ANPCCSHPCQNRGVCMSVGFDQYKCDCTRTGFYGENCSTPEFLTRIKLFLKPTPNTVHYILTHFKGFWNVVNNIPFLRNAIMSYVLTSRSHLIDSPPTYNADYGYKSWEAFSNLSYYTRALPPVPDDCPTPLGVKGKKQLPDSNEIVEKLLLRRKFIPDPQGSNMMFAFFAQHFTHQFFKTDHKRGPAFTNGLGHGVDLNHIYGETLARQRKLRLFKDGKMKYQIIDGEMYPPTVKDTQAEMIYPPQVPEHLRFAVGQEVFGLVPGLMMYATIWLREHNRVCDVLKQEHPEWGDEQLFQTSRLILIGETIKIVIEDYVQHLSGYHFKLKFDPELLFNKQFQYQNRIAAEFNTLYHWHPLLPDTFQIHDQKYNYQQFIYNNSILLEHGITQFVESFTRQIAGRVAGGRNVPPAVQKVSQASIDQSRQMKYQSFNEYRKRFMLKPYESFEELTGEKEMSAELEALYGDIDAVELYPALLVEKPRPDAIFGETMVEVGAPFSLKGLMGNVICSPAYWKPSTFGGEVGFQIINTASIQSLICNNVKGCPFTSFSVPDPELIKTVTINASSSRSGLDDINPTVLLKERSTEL", "settings": "Takeda 2008; cited from earlier work"}, "5-HT1A": {"target": "T2, 5-HT1A (Rattus norvegicus, UniProt P19327)", "T2 sequence (P19327 1-422)": "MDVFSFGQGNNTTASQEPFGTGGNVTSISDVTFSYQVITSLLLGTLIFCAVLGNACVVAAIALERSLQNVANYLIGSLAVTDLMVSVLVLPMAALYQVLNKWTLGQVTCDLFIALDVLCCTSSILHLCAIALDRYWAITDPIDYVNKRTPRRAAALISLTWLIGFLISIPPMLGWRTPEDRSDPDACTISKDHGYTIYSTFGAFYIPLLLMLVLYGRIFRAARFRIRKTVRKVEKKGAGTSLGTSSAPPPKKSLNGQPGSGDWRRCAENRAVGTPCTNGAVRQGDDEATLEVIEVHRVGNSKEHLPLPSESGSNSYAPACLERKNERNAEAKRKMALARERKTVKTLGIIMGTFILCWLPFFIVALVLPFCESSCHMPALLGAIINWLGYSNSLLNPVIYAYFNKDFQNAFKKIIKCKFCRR", "settings": "higher affinity than CBD; Bolognini et al. 2012; cited from earlier work"}, "[2]": {"settings": "WO2017025712; cited from earlier work"}, "[3]": {"test_system": "nausea and vomiting in a rat model", "settings": "via 5-HT1A activation mechanism, Bolognini et al. 2012; cited from earlier work"}},
  "data": [
    {"compound": "C=C(C)[C@@H]1CCC(C)=C[C@H]1c1c(O)cc(CCCCC)c(C(=O)O)c1O.C[N+](C)(C)CC(=O)[O-]", "note": "[1:1 CBDA Betaine Cocrystal, 1:1 cannabidiolic acid betaine cocrystal]", "values": [
      {"measurement": "XRPD (solid form change)", "setting": "[1]; 4 weeks", "value": "No change"},
      {"measurement": "XRPD (solid form change)", "setting": "[1]; 4 weeks, listed as 1:1 cannabidiolic acid betaine", "value": "no solid form conversion or dissociation had occurred"},
      {"measurement": "Appearance", "setting": "[1]; 4 weeks, white solid at start", "value": "No change"},
      {"measurement": "Appearance", "setting": "[1]; 4 weeks, white solid at start, listed as 1:1 cannabidiolic acid betaine", "value": "remained unchanged as white solids"},
      {"measurement": "Storage stability compared to pure cannabidiolic acid", "setting": "[1]", "value": "significantly superior storage properties compared to pure CBDA"}
    ]},
    {"compound": "C=C(C)[C@@H]1CCC(C)=C[C@H]1c1c(O)cc(CCCCC)c(C(=O)O)c1O.CCc1occc(=O)c1O", "note": "[1:1 CBDA Ethyl Maltol Cocrystal, 1:1 cannabidiolic acid ethyl maltol cocrystal]", "values": [
      {"measurement": "Time to conversion into dark brown liquid", "setting": "[1]", "value": "≤ 2", "unit": "weeks"},
      {"measurement": "Appearance", "setting": "[1]; 2 weeks, white solid at start", "value": "Dark brown liquid"},
      {"measurement": "Storage stability compared to pure cannabidiolic acid", "setting": "[1]", "value": "more stable than pure cannabidiolic acid"}
    ]},
    {"compound": "C=C(C)C1CCC(C)=CC1c1c(O)cc(CCCCC)c(C(=O)O)c1O.O=C(O)C1CCCN1", "note": "[1:1 CBDA L-Proline Cocrystal, 1:1 cannabidiolic acid L-proline cocrystal]", "values": [
      {"measurement": "XRPD (solid form change)", "setting": "[1]; 4 weeks", "value": "No change"},
      {"measurement": "XRPD (solid form change)", "setting": "[1]; 4 weeks, listed as 1:1 cannabidiolic acid L-proline cocrystal", "value": "same crystalline structure"},
      {"measurement": "Appearance", "setting": "[1]; 4 weeks, white solid at start", "value": "tan solid"},
      {"measurement": "Appearance", "setting": "[1]; 4 weeks, white solid at start, listed as 1:1 cannabidiolic acid L-proline cocrystal", "value": "tanned colored solid"}
    ]},
    {"compound": "C=C(C)[C@@H]1CCC(C)=C[C@H]1c1c(O)cc(CCCCC)c(C(=O)O)c1O.N[C@@H](Cc1ccccc1)C(=O)O", "note": "[1:1 CBDA Phenylalanine Cocrystal, 1:1 cannabidiolic acid L-phenylalanine cocrystal]", "values": [
      {"measurement": "XRPD (solid form change)", "setting": "[1]; 4 weeks", "value": "No change"},
      {"measurement": "XRPD (solid form change)", "setting": "[1]; 4 weeks, listed as 1:1 cannabidiolic acid L-phenylalanine", "value": "no solid form conversion or dissociation had occurred"},
      {"measurement": "Appearance", "setting": "[1]; 4 weeks, white solid at start", "value": "No change"},
      {"measurement": "Appearance", "setting": "[1]; 4 weeks, white solid at start, listed as 1:1 cannabidiolic acid L-phenylalanine", "value": "remained unchanged as white solids"},
      {"measurement": "Storage stability compared to pure cannabidiolic acid", "setting": "[1]", "value": "significantly superior storage properties compared to pure CBDA"}
    ]},
    {"compound": "C=C(C)[C@@H]1CCC(C)=C[C@H]1c1c(O)cc(CCCCC)c(C(=O)O)c1O.COc1cc(C=O)ccc1O", "note": "[1:1 CBDA Vanillin Cocrystal, 1:1 cannabidiolic acid vanillin cocrystal]", "values": [
      {"measurement": "Time to conversion into dark brown liquid", "setting": "[1]", "value": "≤ 3", "unit": "weeks"},
      {"measurement": "Appearance", "setting": "[1]; 3 weeks, white solid at start", "value": "Dark brown liquid"},
      {"measurement": "Storage stability compared to pure cannabidiolic acid", "setting": "[1]", "value": "more stable than pure cannabidiolic acid"}
    ]},
    {"compound": "C=C(C)[C@@H]1CCC(C)=C[C@H]1c1c(O)cc(CCCCC)c(C(=O)O)c1O", "note": "[Pure CBDA, cannabidiolic acid]", "values": [
      {"measurement": "Time to deliquescence to a liquid", "setting": "[1]", "value": "Within one hour"},
      {"measurement": "Appearance", "setting": "[1]; 2 hours, off-white solid at start", "value": "Dark brown liquid"},
      {"measurement": "Appearance", "setting": "[1]; 2 hours, off-white solid at start, listed as pure CBDA", "value": "liquid that within a further hour had turned dark brown in color"},
      {"measurement": "Inhibition of COX-2 activity", "setting": "COX-2", "value": "selectively inhibit COX-2 activity"},
      {"measurement": "Affinity for 5-HT1A relative to CBD", "setting": "5-HT1A", "value": 100, "unit": "fold"},
      {"measurement": "Efficacy in treating epilepsy versus CBD", "setting": "[2]", "value": "more effective than CBD"},
      {"measurement": "Inhibition of nausea and vomiting, potency versus CBD", "setting": "[3]", "value": "significantly greater potency than CBD"}
    ]}
  ]
}
